Results from patent publication US20060122201A1, “Uracil-thioether” (priority 2002, published 2006).

molecular target: T1, Pol III (PolC) from S. aureus (Staphylococcus aureus, UniProt P0C1P9); experiment: Determination of the IC50 for Polymerase III (PolC), coupled pyrophosphate/ATP sulfurylase/luciferase assay; format: biochemical; settings: purified His-tagged PolC 2 nM, activated calf thymus DNA, 30° C. 30 min, luminescence readout
T1 construct: His tag (pET15b vector) (N); made in house; host or cells: E. coli BL21(DE3)
T1 sequence (P0C1P9 1-1435): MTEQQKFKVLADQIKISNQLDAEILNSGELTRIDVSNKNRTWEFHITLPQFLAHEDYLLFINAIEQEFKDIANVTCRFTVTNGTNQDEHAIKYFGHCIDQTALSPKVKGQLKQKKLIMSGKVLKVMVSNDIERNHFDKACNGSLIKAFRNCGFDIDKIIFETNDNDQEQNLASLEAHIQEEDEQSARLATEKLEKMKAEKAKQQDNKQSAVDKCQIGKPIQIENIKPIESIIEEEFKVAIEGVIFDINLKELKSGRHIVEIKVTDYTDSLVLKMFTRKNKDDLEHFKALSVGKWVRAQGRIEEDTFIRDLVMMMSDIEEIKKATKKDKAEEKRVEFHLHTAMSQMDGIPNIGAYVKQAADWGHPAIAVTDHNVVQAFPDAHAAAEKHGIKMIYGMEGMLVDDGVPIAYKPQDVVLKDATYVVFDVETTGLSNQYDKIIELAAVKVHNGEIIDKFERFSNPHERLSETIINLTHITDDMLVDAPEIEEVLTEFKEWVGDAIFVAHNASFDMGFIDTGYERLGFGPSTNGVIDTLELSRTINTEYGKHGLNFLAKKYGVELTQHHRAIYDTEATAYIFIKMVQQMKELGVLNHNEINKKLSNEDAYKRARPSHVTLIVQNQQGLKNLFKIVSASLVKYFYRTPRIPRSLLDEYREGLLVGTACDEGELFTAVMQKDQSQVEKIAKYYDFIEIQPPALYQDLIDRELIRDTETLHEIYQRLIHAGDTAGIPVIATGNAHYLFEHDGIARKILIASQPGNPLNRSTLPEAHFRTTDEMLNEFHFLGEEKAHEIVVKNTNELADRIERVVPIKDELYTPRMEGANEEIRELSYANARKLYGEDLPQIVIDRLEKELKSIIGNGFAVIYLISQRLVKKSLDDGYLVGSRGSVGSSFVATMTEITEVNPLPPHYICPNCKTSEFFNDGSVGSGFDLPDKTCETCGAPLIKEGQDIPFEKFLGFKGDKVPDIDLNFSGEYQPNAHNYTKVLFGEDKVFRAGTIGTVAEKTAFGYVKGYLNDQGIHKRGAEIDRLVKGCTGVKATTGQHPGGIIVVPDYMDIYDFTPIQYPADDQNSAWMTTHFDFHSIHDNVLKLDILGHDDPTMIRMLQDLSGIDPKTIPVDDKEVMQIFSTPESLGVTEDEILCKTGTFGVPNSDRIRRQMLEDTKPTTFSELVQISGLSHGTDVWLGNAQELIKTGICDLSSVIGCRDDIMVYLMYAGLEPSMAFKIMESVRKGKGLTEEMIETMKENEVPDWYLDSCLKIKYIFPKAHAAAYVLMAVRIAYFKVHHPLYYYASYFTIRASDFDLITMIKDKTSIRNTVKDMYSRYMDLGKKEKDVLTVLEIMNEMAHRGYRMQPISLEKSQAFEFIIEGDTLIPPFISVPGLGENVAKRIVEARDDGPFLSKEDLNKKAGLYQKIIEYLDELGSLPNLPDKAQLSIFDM
From the text: Cloning, Expression and Purification of Pol III from S. aureus
To clone polC with an N-terminal His tag, the structural gene polC is amplified from S. aureus genomic DNA with the aid of PCR. The primers SAPol 31 5′-[…]-3′ and SAPolrev 5′-[…]-3′ are used to introduce the NdeI and BamHI restriction cleavage sites respectively in front of and behind the amplified gene. After the PCR product which is 4300 bp in size has been digested with NdeI and BamHI, it is ligated into the vector pET15b (Novagen, USA), which has likewise been digested with NdeI and BamHI, and transformed into E. coli XL-1 Blue.
After transformation into E. coli BL21(DE3), the cells are cultivated for expression of PolC at 30° C. in LB medium with 100 μg/ml ampicillin until the OD595nm is 0.5, cooled to 18° C. and, after addition of 1 mM IPTG, incubated for a further 20 hours. The cells are harvested by centrifugation, washed once in PBS with 1 mM PMSF and taken up in 50 mM NaH2PO4 pH 8.0, 10 mM imidazole, 2 mM β-mercaptoethanol, 1 mM PMSF, 20% glycerol. The cells are disrupted using a French press at 12,000 psi, the cell detritus is removed by centrifugation (27,000×g, 120 min, 4° C.) and the supernatant is stirred with an appropriate amount of Ni-NTA-agarose (from Quiagen, Germany) at 4° C. for 1 hour. After the gel matrix has been packed into a column it is washed with 50 mM NaH2PO4 pH 8.0, 2 mM β-mercaptoethanol, 20 mM imidazole, 10% glycerol, and the purified protein is then eluted with the same buffer containing 100 mM imidazole. The purified protein is mixed with 50% glycerol and stored at −20° C.
Determination of the IC50 for Polymerase III
The activity of PolC is measured in an enzymatically coupled reaction, with the pyrophosphate formed during the polymerization being converted with the aid of ATP sulfurylase into ATP, which is detected using firefly luciferase. The reaction mixture contains, in a final volume of 50 μl, 50 mM Tris/Cl pH 7.5; 5 mM DTT, 10 mM MgCl2, 30 mM NaCl, 0.1 mg/ml BSA, 10% glycerol, 20 μM each DATP, dTTP, dCTP, 2 U/ml activated calf thymus DNA (from Worthington, USA), 20 μM APS and 0.06 mM luciferin. The reaction is started by adding purified PolC in a final concentration of 2 nM and is incubated at 30° C. for 30 min. The amount of pyrophosphate formed is then converted into ATP by adding ATP sulfurylase (Sigma, USA) in a final concentration of 5 nM and incubating at 30° C. for 15 min. After addition of 0.2 nM firefly luciferase, the luminescence is measured in a luminometer for 60 s. The IC50 is reported as the concentration of an inhibitor which leads to 50% inhibition of the enzymic activity of PolC.

IC50 [nM] | SMILES
110 | CSc1nnc(CSCCn2c(=O)cc(Nc3ccc4c(c3)CCC4)[nH]c2=O)s1 [Example 15]
50 | CCc1cc(Nc2cc(=O)n(CCSCc3nnc(C)s3)c(=O)[nH]2)ccc1C [Example 16]

Further lines, the compound ahead of its results:

SMILES | IC50 [nM]
CCc1cc(Nc2cc(=O)n(CCSCC(=O)N3CCN(c4ccc([N+](=O)[O-])cc4)CC3)c(=O)[nH]2)ccc1C [Example 34] | 300
CCc1cc(Nc2cc(=O)n(CCSCc3c(C)noc3C)c(=O)[nH]2)ccc1C [Example 42] | 80
CCc1cc(Nc2cc(=O)n(CCCSCC(=O)N3CCN(c4ccc(F)cc4)CC3)c(=O)[nH]2)ccc1C [Example 47] | 400
